Assay results from paper PMC7374424, “Ion-Selective Carbon Nanotube Field-Effect Transistors for Monitoring Drug Effects on Nicotinic Acetylcholine Receptor Activation in Live Cells” (Sensors (Basel, Switzerland), 2020).
Like-named read-outs stand apart in the source and are kept apart here.

Experiments:
[1] = system: nicotinic acetylcholine receptor (nAChR), native in PC12 cells, subunits not specified; experiment: inhibition of […] nicotine-induced K+ release from PC12 cells, ion-selective CNT-FET; format: cell-based, Rattus norvegicus
[2] = system: nicotinic acetylcholine receptor (nAChR), native in PC12 cells, subunits not specified; experiment: agonist-induced K+ release from PC12 cells by ion-selective CNT-FET, Hill fit; format: cell-based, Rattus norvegicus
[3] = system: nicotinic acetylcholine receptor (nAChR), native in PC12 cells, subunits not specified

Row | Structure (SMILES) | IC50 [1] [pIC50] | further results
1 | C[N+](C)(C)CCCCCC[N+](C)(C)C [HB, hexamethonium] | 4.58 ± 0.85 | –
2 | CNC1(C)C2CCC(C2)C1(C)C (stereo not shown) [MH, mecamylamine] | 5.74 ± 0.54 | –
